{
  "source": "patent US20110288014A1",
  "about": "“METHODS AND COMPOSITIONS FOR DIABETES TREATMENT AND PREVENTION” (TUM Technische Universitat Munchen, priority 2008, published 2011)",
  "key": {"[1]": {"tested_on": "mouse adipocytes (cell line 3T3-L1)", "assay": "2-deoxyglucose (2-DG) uptake, resorufin assay", "assay_type": "cell-based", "experimental": "Mouse adipocytes (cell line 3T3-L1) as well as mouse myotubes (cell line C2C12) were cultivated under standard conditions and treated either with regular cell culture medium or insulin for 4 hours. Afterwards, cells were exposed to a combination of 2-deoxyglucose (2-DG) and the respective sample, either N-MP, coffee beverage (content of NMP in the coffee beverage: 26.7 mg/L) or a combination of both, for 2 hours. Then, cells were harvested and the 2-DG uptake was analyzed photometrically using the resorufin assay (Yamamoto, N.; Sato, T.; Kawasaki, K.; Murosaki, S.; Yamamoto, Y. A nonradioisotope, enzymatic assay for 2-deoxyglucose uptake in L6 skeletal muscle cells cultured in a 96-well microplate. Analytical Biochemistry 2006, 351, 139-145)."}, "[2]": {"tested_on": "mouse adipocytes (cell line 3T3-L1)", "assay": "2-deoxyglucose (2-DG) uptake, resorufin assay", "assay_type": "cell-based", "details": "for 2-DG uptake: first ten minutes after incubation, nearly independent of concentration"}, "[3]": {"details": "sample alone, no insulin cotreatment, compared to control cells"}},
  "note": "“Also recorded” adds a separate entry of the source.",
  "data": [
    {"compound": "CCCCCCCCCCCCCCCC[n+]1ccccc1", "note": "[N-cetylpyridinium iodide]", "values": [
      {"measurement": "2-deoxyglucose uptake in adipocytes", "setting": "[1]; in combination with insulin", "value": "excellent effects"},
      {"measurement": "2-deoxyglucose uptake in adipocytes", "setting": "[1]; [3]", "value": "excellent effects"},
      {"measurement": "2-DG uptake", "setting": "[2]; alone (FIG. 16 left panel)", "value": "excellent results"},
      {"measurement": "2-DG uptake", "setting": "[2]; co-treatment with insulin (FIG. 16 right panel)", "value": "excellent results"}
    ]},
    {"compound": "CC[n+]1ccccc1", "note": "[N-ethylpyridinium iodide]", "values": [
      {"measurement": "2-deoxyglucose uptake in adipocytes", "setting": "[1]; [3]", "value": "good results"}
    ]},
    {"compound": "N-methylpyridinium [N-MP]", "values": [
      {"measurement": "effectiveness of insulin on 2-deoxyglucose uptake", "setting": "[1]; FIG. 5, in combination with coffee beverage and insulin", "value": "greatly enhance the effectiveness of insulin"},
      {"measurement": "2-deoxyglucose uptake in adipocytes", "setting": "[1]; in combination with insulin", "value": "significantly enhance the effect of insulin"},
      {"measurement": "2-deoxyglucose uptake in adipocytes", "setting": "[1]; [3]", "value": "increased; also recorded: best results and effects"},
      {"measurement": "2-deoxyglucose uptake in adipocytes", "setting": "[1]; sample alone, no insulin cotreatment, compared to control cells, listed as N-Methylpyridinium", "value": "enhance the uptake of 2-deoxyglucose in mouse adipocytes similarly insulin"},
      {"measurement": "2-DG uptake by mouse adipocytes", "setting": "[2]; FIG. 2, in combination with insulin, treatment times 1 min and 10 min, compared with insulin alone", "value": "statistically higher extent than insulin alone"}
    ]},
    {"compound": "C[n+]1ccccc1.[I-]", "note": "[N-methylpyridinium iodide]", "values": [
      {"measurement": "2-deoxyglucose uptake in adipocytes", "setting": "[1]; in combination with insulin", "value": "improved"}
    ]},
    {"compound": "Cc1cc[n+](C)cc1", "note": "[N-4-Methylpicolinium]", "values": [
      {"measurement": "2-DG uptake", "setting": "[1]; alone or in combination with insulin, independently from the concentration used (FIGS. 10 and 11)", "value": "higher than 100%"},
      {"measurement": "2-deoxyglucose uptake in adipocytes", "setting": "[1]; in combination with insulin", "value": "substantial increase"},
      {"measurement": "2-DG uptake", "setting": "[1]; in some cases (FIG. 11, concurrent use of insulin)", "value": "> 200", "unit": "%"},
      {"measurement": "2-deoxyglucose uptake in adipocytes", "setting": "[1]; [3]", "value": "substantial increase"}
    ]},
    {"compound": "Cc1ccc[n+](C)c1", "note": "[N-3-Methylpicolinium iodide]", "values": [
      {"measurement": "2-deoxyglucose uptake in adipocytes", "setting": "[1]; [3]", "value": "substantial improvement"}
    ]}
  ]
}
